Tests used:
Aurora1 (Aurora-B) = target: T1, Aurora1 (Aurora-B) (Homo sapiens, UniProt Q96GD4); assay: Aurora 1 (Aurora B) kinase radioactivity scintillation assay using nickel chelate Flash plates; type: biochemical; settings: 10 nM Aurora-B (co expressed with C3 fragment of INCEP), 500 nM NuMA substrate, 1 μM ATP with [33P] ATP, 5 mM MgCl2, 30 minutes, 37° C.
T1 construct: Aurora-B: the full length protein (His tagged in N-terminal) has been co expressed in SF9 cells; poly-histidine (N); made in house; host or cells: SF9 cells
Experimental: (§1) Aurora 1 and 2 (Respectively. Aurora B and A)
(§2) The inhibitory effect of compounds with respect to the Aurora 1 and 2 kinases is determined with a radioactivity scintillation assay using nickel chelate.
(§3) The kinase activity of Aurora is measured by the phosphorylation of NuMA-histidine substrate in the presence of radiolabelled ATP ([^33P] ATP) using 96 well Flash plates where the nickel-chelate is linked to the surface of the microplate. The amount of ^33P incorporated to the substrate NuMA is proportional to the aurora activity.
(§4) The Flash plates used are nickel-chelate 96 well plates (Perkin Elmer, model SMP107).
(§5) The products to be evaluated are incubated in a 100 μl reaction volume per well in the presence of 10 nM of Aurora-B or Aurora-A, 500 nM of NuMA substrate in the following buffer: 50 mM of NaCl, 5 mM MgCl2, (Aurora-B) or 10 mM MgCl2 (Aurora-A) and 1 mM of DTT at 37° C.
(§6) 80 μL of enzyme/substrate incubation buffer is distributed in each well, followed by 10 μL of solution of compound to be measured with various concentrations. The reaction is started by adding 1 μM of ATP (final concentration) containing 0.2 μCi of [^33P] ATP (10 μL). After 30 minutes of incubation the reaction is stopped by removal of the reaction mixture and each well is washed twice with 300 μl of buffer Tris/HCl. The radioactivity is measured in each well using a Packard Top count scintillation counter instrument.
(§7) The enzymatic activity is expressed as counts per minute obtained in 30 minutes after subtraction of the background noise (reaction medium without enzyme). The measurement is expressed as percentage of inhibition of Aurora activity versus the control. To generate IC50 values, compounds of the invention are tested at different concentration and the percentage of inhibition are plotted as function of compound concentration, IC50s are calculated using the Xlfit 4 curve fitting software.

Aurora2 (Aurora-A) = target: T2, Aurora2 (Aurora-A) (Homo sapiens, UniProt O14965); assay: Aurora 2 (Aurora A) kinase radioactivity scintillation assay using nickel chelate Flash plates; type: biochemical; settings: 10 nM Aurora-A, 500 nM NuMA substrate, 1 μM ATP with [33P] ATP, 10 mM MgCl2, 30 minutes, 37° C.
T2 construct: Aurora-A: the full length recombinant protein including an N-terminal poly-histidine tail has been expressed in E. coli; poly-histidine (N); made in house; host or cells: E. coli
T2 sequence (O14965 1-403): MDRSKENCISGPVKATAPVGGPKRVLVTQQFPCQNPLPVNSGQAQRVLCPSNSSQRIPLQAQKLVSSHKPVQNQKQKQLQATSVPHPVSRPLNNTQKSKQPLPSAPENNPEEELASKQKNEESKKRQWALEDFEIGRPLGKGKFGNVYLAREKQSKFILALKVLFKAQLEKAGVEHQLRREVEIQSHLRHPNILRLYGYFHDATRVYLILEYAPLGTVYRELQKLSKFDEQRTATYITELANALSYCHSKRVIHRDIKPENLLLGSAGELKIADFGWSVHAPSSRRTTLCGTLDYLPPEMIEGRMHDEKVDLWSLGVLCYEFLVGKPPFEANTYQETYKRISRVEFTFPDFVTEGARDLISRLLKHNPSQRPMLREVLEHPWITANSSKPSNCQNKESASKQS
Experimental: as §1, §2, §3, §4, §5, §6, §7

T1 sequence (Q96GD4 whole entry, species assumed, the tested form may be a part): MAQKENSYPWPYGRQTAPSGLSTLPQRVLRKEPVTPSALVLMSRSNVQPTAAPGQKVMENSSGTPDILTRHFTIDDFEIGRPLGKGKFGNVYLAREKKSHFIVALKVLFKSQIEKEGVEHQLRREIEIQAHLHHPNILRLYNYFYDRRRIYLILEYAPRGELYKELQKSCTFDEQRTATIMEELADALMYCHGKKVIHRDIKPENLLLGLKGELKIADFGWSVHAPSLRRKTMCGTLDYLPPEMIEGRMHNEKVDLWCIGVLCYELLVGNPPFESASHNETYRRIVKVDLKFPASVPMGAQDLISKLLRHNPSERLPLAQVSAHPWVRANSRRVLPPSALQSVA
T1 sequence (Q9NQS7 821-918 partner limits assumed, species assumed): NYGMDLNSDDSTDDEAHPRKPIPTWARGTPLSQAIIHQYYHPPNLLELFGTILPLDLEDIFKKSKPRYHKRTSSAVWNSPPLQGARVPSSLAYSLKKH

SMILES	IC50 (Aurora1 (Aurora-B)) [µM]	IC50 (Aurora2 (Aurora-A)) [µM]
Cn1c(-c2ccc(Cl)cc2)cnc1Sc1ccc(C2C3=C(CC(C)(C)CC3=O)Nc3n[nH]cc32)o1 (stereo not shown) [Example 93, 4-{5-[5-(4-Chloro-phenyl)-1-methyl-1H-imidazol-2-ylsulfanyl]-furan-2-yl}-7,7-dimethyl-2,4,6,7,8,9-hexahydro-pyrazolo[3,4-b]quinolin-5-one]	0.156	1.36
CCOC(=O)c1[nH]cc2c1NC1=C(C(=O)CN(C(=O)OC(C)(C)C)C1)C2c1ccc(Sc2nc3cc(Cl)cc(C)c3[nH]2)o1 (stereo not shown) [Example 137, 6-tert-Butyloxy-9-[5-(5-chloro-7-methyl-1H-benzimidazol-2-ylsulfanyl)-furan-2-yl]-8-oxo-2,4,5,7,8,9-hexahydro-pyrrolo[3,4-b]-1,7-naphthyridine-3-carboxylic acid ethyl ester]	0.093	0.205
CCOC(=O)c1[nH]cc2c1NC1=C(C(=O)CCC1)C2c1ccc(Sc2nc3cc(Cl)cc(C)c3[nH]2)o1 (stereo not shown) [Example 136, 9-[5-(5-Chloro-7-methyl-1H-benzimidazol-2-ylsulfanyl)-furan-2-yl]-8-oxo-4,5,6,7,8,9-hexahydro-2H-pyrrolo[3,4-b]quinoline-3-carboxylic acid ethyl ester]	0.012	0.018
CCOC(=O)c1[nH]cc2c1NC1=C(C(=O)CCC1)C2c1ccc(Sc2nc3cc(F)c(F)cc3[nH]2)o1 (stereo not shown) [Example 114, 9-[5-(5,6-Difluoro-1H-benzimidazol-2-ylsulfanyl)-furan-2-yl]-8-oxo-4,5,6,7,8,9-hexahydro-2H-pyrrolo[3,4-b]quinoline-3-carboxylic acid ethyl ester]	0.006	
CCOC(=O)c1[nH]cc2c1NC1=C(C(=O)CCC1)C2c1ccc(Sc2nc3ccncc3[nH]2)o1 (stereo not shown) [Example 117, 9-[5-(3H-Imidazo[4,5-c]pyridin-2-ylsulfanyl)-furan-2-yl]-8-oxo-4,5,6,7,8,9-hexahydro-2H-pyrrolo[3,4-b]quinoline-3-carboxylic acid ethyl ester]	0.194	3.09
Cn1c(Sc2ccc(C3C4=C(CNCC4=O)Nc4n[nH]cc43)o2)nc2ccccc21 (stereo not shown) [Example 83, 4-[5-(1-Methyl-1H-benzimidazol-2-ylsulfanyl)-furan-2-yl]-2,4,6,7,8,9-hexahydro-pyrazolo[3,4-b]-1,7-naphthyridin-5-one; compound with trifluoro-acetic acid]	5.02	
CCOC(=O)c1[nH]cc2c1NC1=C(C(=O)CCC1)C2c1ccc(Sc2nc3ccc(F)c(F)c3[nH]2)o1 (stereo not shown) [Example 121, 9-[5-(6,7-Difluoro-1H-benzimidazol-2-ylsulfanyl)-furan-2-yl]-8-oxo-4,5,6,7,8,9-hexahydro-2H-pyrrolo[3,4-b]quinoline-3-carboxylic acid ethyl ester]	0.007	
CCOC(=O)c1[nH]cc2c1NC1=C(C(=O)CCC1)C2c1ccc(Sc2nc3c(F)c(F)c(F)cc3[nH]2)o1 (stereo not shown) [Example 122, 8-Oxo-9-[5-(4,5,6-trifluoro-1H-benzimidazol-2-ylsulfanyl)-furan-2-yl]-4,5,6,7,8,9-hexahydro-2H-pyrrolo[3,4-b]quinoline-3-carboxylic acid ethyl ester]	0.007	
CCOC(=O)c1[nH]cc2c1NC1=C(C(=O)CCC1)C2c1ccc(Sc2nc3c(F)cc(F)cc3[nH]2)o1 (stereo not shown) [Example 142, 9-[5-(4,6-Difluoro-1H-benzimidazol-2-ylsulfanyl)-furan-2-yl]-8-oxo-4,5,6,7,8,9-hexahydro-2H-pyrrolo[3,4-b]quinoline-3-carboxylic acid ethyl ester]	0.003	
CCOC(=O)c1[nH]cc2c1NC1=C(C(=O)CC(C)(C)C1)C2c1ccc(Sc2nc3ccccc3[nH]2)o1 (stereo not shown) [Example 106, 9-[5-(1H-Benzimidazol-2-ylsulfanyl)-furan-2-yl]-6,6-dimethyl-8-oxo-4,5,6,7,8,9-hexahydro-2H-pyrrolo[3,4-b]quinoline-3-carboxylic acid ethyl ester]	0.031	
CCOC(=O)c1[nH]cc2c1NC1=C(C(=O)CNC1)C2c1ccc(Sc2nc3ccccc3[nH]2)o1 (stereo not shown) [Example 104, 9-[5-(1H-Benzimidazol-2-ylsulfanyl)-furan-2-yl]-8-oxo-4,5,6,7,8,9-hexahydro-2H-pyrrolo[3,4-b]-1,7-naphthyridine-3-carboxylic acid ethyl ester; compound with trifluoro-acetic acid]	0.007	

Now from value to molecule:

IC50 (Aurora1 (Aurora-B)) [µM]	IC50 (Aurora2 (Aurora-A)) [µM]	SMILES
0.011		CCOC(=O)c1[nH]cc2c1NC1=C(C(=O)CCC1)C2c1ccc(Sc2nc3cc(F)ccc3[nH]2)o1 (stereo not shown) [Example 148, 9-[5-(5-Fluoro-1H-benzimidazol-2-ylsulfanyl)-furan-2-yl]-8-oxo-4,5,6,7,8,9-hexahydro-2H-pyrrolo[3,4-b]quinoline-3-carboxylic acid ethyl ester]
0.006	0.02	Cc1ccc2[nH]c(Sc3ccc(C4C5=C(CC(C)(C)CC5=O)Nc5n[nH]cc54)o3)nc2c1 (stereo not shown) [Example 72, 7,7-Dimethyl-4-[5-(5-methyl-1H-benzimidazol-2-ylsulfanyl)-furan-2-yl]-2,4,6,7,8,9-hexahydro-pyrazolo[3,4-b]quinolin-5-one]
0.009	0.046	O=C1CCCC2=C1C(c1ccc(Sc3nc4cc(OC(F)F)ccc4[nH]3)o1)c1c[nH]nc1N2 (stereo not shown) [Example 76, 4-[5-(5-Difluoromethoxy-1H-benzimidazol-2-ylsulfanyl)-furan-2-yl]-2,4,6,7,8,9-hexahydro-pyrazolo[3,4-b]quinolin-5-one; compound with trifluoro-acetic acid]
0.041	0.495	COc1ccc2[nH]c(Sc3ccc(C4C5=C(CNCC5=O)Nc5n[nH]cc54)o3)nc2c1 (stereo not shown) [Example 80, 4-[5-(5-Methoxy-1H-benzimidazol-2-ylsulfanyl)-furan-2-yl]-2,4,6,7,8,9-hexahydro-pyrazolo[3,4-b]-1,7-naphthyridin-5-one; compound with trifluoro-acetic acid]
3.4		O=C1CCCC2=C1C(c1ccc(Sc3ccccn3)o1)c1c[nH]nc1N2 (stereo not shown) [Example 40]
0.004		O=C1CCCC2=C1[C@H](c1ccc(Sc3nc4ccccc4[nH]3)o1)c1c[nH]nc1N2 (single isomer, unassigned) [120a (+), 4-[5-(1H-Benzimidazol-2-ylsulfanyl)-furan-2-yl]-1,4,6,7,8,9-hexahydro-pyrazolo[3,4-b]quinolin-5-one]
0.008		O=C1CCCC2=C1C(c1ccc(Sc3nc4ccccc4[nH]3)o1)c1cn[nH]c1N2 (stereo not shown) [Example 3, 4-[5-(1H-Benzimidazol-2-ylsulfanyl)-furan-2-yl]-1,4,6,7,8,9-hexahydro-pyrazolo[3,4-b]quinolin-5-one]
0.075		O=C1CCCC2=C1[C@H](c1ccc(Sc3nc4ccccc4[nH]3)o1)c1c[nH]nc1N2 (single isomer, unassigned) [120b (−), 4-[5-(1H-Benzimidazol-2-ylsulfanyl)-furan-2-yl]-1,4,6,7,8,9-hexahydro-pyrazolo[3,4-b]quinolin-5-one]
0.083		O=C1CNCC2=C1C(c1ccc(Sc3nc4ccccc4[nH]3)o1)c1c[nH]nc1N2 (stereo not shown) [Example 20, 4-[5-(1H-Benzimidazol-2-ylsulfanyl)-furan-2-yl]-2,4,6,7,8,9-hexahydro-pyrazolo[3,4-b]-1,7-naphthyridin-5-one; compound with trifluoro-acetic acid]
0.01		CCOC(=O)c1[nH]cc2c1NC1=C(C(=O)CCC1)C2c1ccc(Sc2nc3cc(Cl)ccc3[nH]2)o1 (stereo not shown) [Example 129, 9-[5-(5-Chloro-1H-benzimidazol-2-ylsulfanyl)-furan-2-yl]-8-oxo-4,5,6,7,8,9-hexahydro-2H-pyrrolo[3,4-b]quinoline-3-carboxylic acid ethyl ester]

Reference: patent US8163768B2, “1,4-dihydropyridine-fused heterocycles, process for preparing the same, use and compositions containing them” (Aventis Pharma S.A.., priority 2005, dated 2012)
